Measured values taken from patent US9834542B2, “LXR modulators” (BRISTOL-MYERS SQUIBB COMPANY, priority 2013, dated 2017).

Molecular target: T1, LXRβ (Homo sapiens, UniProt P55055)
T1 construct: Co-transfection expression plasmids, comprising full-length LXRα (pCMX-h LXRα[…] or LXRβ (pCMX-hLXRβ)); expressed in transfected cells; host or cells: CV-1 African Green Monkey Kidney Cells
T1 sequence (P55055 1-460): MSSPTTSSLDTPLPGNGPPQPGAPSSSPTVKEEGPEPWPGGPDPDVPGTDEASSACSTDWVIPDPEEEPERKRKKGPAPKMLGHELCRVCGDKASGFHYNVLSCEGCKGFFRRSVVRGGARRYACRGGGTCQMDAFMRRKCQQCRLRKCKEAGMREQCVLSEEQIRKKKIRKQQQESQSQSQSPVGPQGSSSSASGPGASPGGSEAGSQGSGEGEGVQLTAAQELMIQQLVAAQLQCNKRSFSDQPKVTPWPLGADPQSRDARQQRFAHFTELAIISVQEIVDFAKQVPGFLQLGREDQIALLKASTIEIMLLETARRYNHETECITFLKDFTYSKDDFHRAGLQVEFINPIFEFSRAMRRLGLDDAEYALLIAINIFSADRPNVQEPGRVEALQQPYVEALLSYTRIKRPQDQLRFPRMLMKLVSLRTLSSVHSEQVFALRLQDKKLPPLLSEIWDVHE
T1 sequence (P19793 1-462 partner): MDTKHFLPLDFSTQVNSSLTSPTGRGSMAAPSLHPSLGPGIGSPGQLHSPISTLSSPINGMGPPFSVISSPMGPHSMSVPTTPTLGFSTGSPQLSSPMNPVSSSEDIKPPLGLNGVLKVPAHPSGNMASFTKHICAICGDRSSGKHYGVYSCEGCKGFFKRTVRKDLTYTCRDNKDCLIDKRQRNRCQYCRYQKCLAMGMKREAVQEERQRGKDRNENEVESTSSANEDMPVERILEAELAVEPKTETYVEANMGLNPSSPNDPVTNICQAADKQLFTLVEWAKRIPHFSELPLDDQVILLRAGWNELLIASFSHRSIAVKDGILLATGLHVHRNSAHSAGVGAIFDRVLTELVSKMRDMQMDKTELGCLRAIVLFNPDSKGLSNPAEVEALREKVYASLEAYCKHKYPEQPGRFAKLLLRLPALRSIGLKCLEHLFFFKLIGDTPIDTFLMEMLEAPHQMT
Assay: Co-transfection assay (LXRE luciferase reporter), LXRβ
Type: cell-based
Conditions: for EC50: CV-1 cells transfected with pCMX-hLXRβ and LXREx1-Tk-Luciferase, 20 hours incubation; for Emax: LXRβ co-transfection, relative to high control 1-(2,4-difluorobenzyl)-2-oxo-6-(4-phenoxyphenyl)-4-(trifluoromethyl)-1,2-dihydropyridine-3-carbonitrile, read-out: % Efficacy
Source text: To measure the ability of compounds to activate or inhibit the transcriptional activity of LXR in a cell based assay, the co-transfection assay was used. It has been shown that LXR functions as a heterodimer with RXR. For the co-transfection assay, expression plasmids for LXRα and LXRβ are introduced separately via transient transfection into mammalian cells along with a luciferase reporter plasmid that contains one copy of a DNA sequence that is bound by LXR-RXR heterodimers (LXRE; Willy, P. et. al. 1995). LXRs heterodimerize with the endogenous RXR. Treatment of transfected cells with an LXR agonist increases the transcriptional activity of LXR, which is measured by an increase in luciferase activity.
CV-1 African Green Monkey Kidney Cells
Co-transfection expression plasmids, comprising full-length LXRα (pCMX-h LXRα[…] or LXRβ (pCMX-hLXRβ), reporter plasmid (LXREx1-Tk-Luciferase), and control (pCMX-Galactosidase expression vector) (Willey et al. Genes & Development 9 1033-1045 (1995)).
CV-1 cells were prepared 24 hours prior to the experiment by plating them into T-175 flasks or 500 cm^2 dishes in order to achieve 70-80% confluency on the day of the transfection. The number of cells to be transfected was determined by the number of plates to be screened. Each well of a 384 well plate requires 1.5×10^4 cells. DNA Transfection Reagent was prepared by mixing the required plasmid DNAs with a cationic lipid transfection reagent Transit 2020 (Mirus Bio) for CV1 by following the instructions provided with the reagents. Optimal DNA amounts were determined empirically per cell line and size of vessel to be transfected. For each T175 cm^2 flask a total of 59 ug for CV1 of DNA, 133 uL Transit2020 and 4.5 mL DMEM for CV1 was mixed and added. Cells were then incubated at least 5 hours at 37° C. to prepare screening cells.
Luciferase assay reagent (*Steady-Glo Luciferase Assay System by Promega, CAT#E2550) was prepared by combining before use:
Assay plates were prepared by dispensing 5 μL of compound per well of a 384 well plate to achieve final compound concentration of 10 μM and no more than 0.5% DMSO. Media was removed from the screening cells, the cells trypsinized, harvested cells by centrifugation, counted, and plated at a density of approximately 1.5×10^4 cells in the 384 well assay plate prepared above in a volume of about 95 uL. Assay plates containing both compounds and screening cells (100 μL in total volume) were incubated for 20 hours at 37° C.
After incubation with compounds, media was removed from the cells and luciferase assay reagent (50 μL/well) added. After ˜2 minutes at ambient temperature, the assay plates were read on a luminometer (PE Biosystems Northstar reader with on-board injectors, or Envision(Perkin Elmer) or equivalent).
The LXR/LXRE co-transfection assay can be used to establish the EC50/IC50 values for potency and percent activity or inhibition for efficacy. Efficacy defines the activity of a compound relative to a high control 1-(2,4-difluorobenzyl)-2-oxo-6-(4-phenoxyphenyl)-4-(trifluoromethyl)-1,2-dihydropyridine-3-carbonitrileor a low control (DMSO/vehicle). The dose response curves are generated from a 11 point curve with concentrations differing by ½ LOG units. Each point represents the average of 2 wells of data from duplicate 384 well plate.
The data from this assay is fitted to the following equation, from which the EC50 value may be solved: Y=Bottom+(Top−Bottom)/(1+10^((logEC50-X)*HillSlope)).
The EC50/IC50 is therefore defined as the concentration at which an agonist or antagonist elicits a response that is halfway between the Top (maximum) and Bottom (baseline) values. The EC50/IC50 values represented are the averages of at least 2 and normally 3 independent experiments. […]

| Structure (SMILES) | EC50 [nM] | Emax [%] |
| --- | --- | --- |
| Cc1nc(C(F)(F)F)c(Cl)n1-c1ccc(-c2cccc(S(C)(=O)=O)c2)cc1-n1nncc1-c1ccc(OC(F)(F)F)cc1 [Example 55, 1-{4-[5-chloro-2-methyl-4-(trifluoromethyl)-1H-imidazol-1-yl]-3′-(methylsulfonyl)biphenyl-3-yl}-5-{4-[(trifluoromethyl)oxy]phenyl}-1H-1,2,3-triazole] | 180 | 110 |
| Cc1nc(C(F)(F)F)cn1-c1ccc(-c2cccc(S(C)(=O)=O)c2)cc1-n1nncc1-c1ccc(OC(F)F)cc1 [Example 65, 5-{4-[(difluoromethyl)oxy]phenyl}-1-{3′-(methylsulfonyl)-4-[2-methyl-4-(trifluoromethyl)-1H-imidazol-1-yl]biphenyl-3-yl}-1H-1,2,3-triazole] | 297 | 80 |
| Cc1nc(-c2cc(-c3cc(F)c(CO)c(S(C)(=O)=O)c3)ccc2-n2cc(C(F)(F)F)nc2C)c(-c2ccc(SC(F)(F)F)cc2)o1 [Example 543] | 67 | 48 |
| COc1cnc(-c2oc(C)nc2-c2cc(-c3cccc(S(C)(=O)=O)c3)ccc2-n2cc(C(F)(F)F)nc2C)cn1 [Example 412, 5-(5-methoxypyrazin-2-yl)-2-methyl-4-(4-(2-methyl-4-(trifluoromethyl)-1H-imidazol-1-yl)-3′-(methylsulfonyl)biphenyl-3-yl)oxazole] | 518 | 72 |
| Cc1nc(C(F)(F)F)cn1-c1ccc(-c2cccc(S(C)(=O)=O)c2)cc1-n1nncc1-c1ccc(F)c(Cl)c1 [Example 33, 5-(3-chloro-4-fluorophenyl)-1-{3′-(methylsulfonyl)-4-[2-methyl-4-(trifluoromethyl)-1H-imidazol-1-yl]biphenyl-3-yl}-1H-1,2,3-triazole] | 649 | 103 |
| CCc1nc(-c2cc(-c3cccc(S(C)(=O)=O)c3)ccc2-n2cc(C(F)(F)F)nc2C)c(-c2ccc3c(c2)OC(F)(F)O3)o1 [Example 478, 5-(2,2-difluorobenzo[d][1,3]dioxol-5-yl)-2-ethyl-4-(4-(2-methyl-4-(trifluoromethyl)-1H-imidazol-1-yl)-3′-(methylsulfonyl)biphenyl-3-yl)oxazole] | 32 | 89 |
| Cc1nc(-c2cc(-c3cc(F)c(CO)c(S(C)(=O)=O)c3)ccc2-n2cc(C(F)(F)F)nc2C)c(-c2ccc(Cl)cc2)o1 [Example 374, {3′-[5-(4-chlorophenyl)-2-methyl-1,3-oxazol-4-yl]-3-fluoro-5-(methylsulfonyl)-4′-[2-methyl-4-(trifluoromethyl)-1H-imidazol-1-yl]biphenyl-4-yl}methanol] | 50 | 72 |
| Cc1nc(C(F)(F)F)cn1-c1c(F)cc(-c2cc(F)c(CO)c(S(C)(=O)=O)c2)cc1-n1nncc1-c1ccc(Cl)cc1 [Example 198, {3′-[5-(4-chlorophenyl)-1H-1,2,3-triazol-1-yl]-3,5′-difluoro-5-(methylsulfonyl)-4′-[2-methyl-4-(trifluoromethyl)-1H-imidazol-1-yl]biphenyl-4-yl}methanol] | 92 | 87 |
| Cc1nc(-c2cc(-c3cc(F)c(CO)c(S(C)(=O)=O)c3)ccc2-n2cc(C(F)(F)F)nc2C)c(-c2ccc3c(c2)OCCO3)o1 [Example 444, (3′-(5-(2,3-dihydrobenzo[b][1,4]dioxin-6-yl)-2-methyloxazol-4-yl)-3-fluoro-4′-(2-methyl-4-(trifluoromethyl)-1H-imidazol-1-yl)-5-(methylsulfonyl)biphenyl-4-yl)methanol] | 125 | 74 |
| Cc1nc(C(F)(F)F)cn1-c1ccc(-c2cc(F)cc(S(C)(=O)=O)c2)cc1-c1nc(C(F)(F)F)cn1-c1ccc2c(c1)OC(F)(F)O2 [Example 641, 1-(2,2-difluorobenzo[d][1,3]dioxol-5-yl)-2-(3′-fluoro-4-(2-methyl-4-(trifluoromethyl)-1H-imidazol-1-yl)-5′-(methylsulfonyl)biphenyl-3-yl)-4-(trifluoromethyl)-1H-imidazole] | 721 | 59 |
| Cc1nc(-c2cc(-c3cccc(S(=O)(=O)C4CC4)c3)ccc2-n2cc(C(F)(F)F)nc2C)c(-c2ccc(OC(F)F)c(F)c2)o1 [Example 429, 4-(3′-(cyclopropylsulfonyl)-4-(2-methyl-4-(trifluoromethyl)-1H-imidazol-1-yl)biphenyl-3-yl)-5-(4-(difluoromethoxy)-3-fluorophenyl)-2-methyloxazole] | 74 | 83 |
| Cc1nc(-c2ccccc2OC(F)(F)F)c(-c2cc(-c3cc(F)c(CO)c(S(C)(=O)=O)c3)ccc2-n2cc(C(F)(F)F)nc2C)o1 [Example 632, (3-fluoro-3′-(2-methyl-4-(2-(trifluoromethoxy)phenyl)oxazol-5-yl)-4′-(2-methyl-4-(trifluoromethyl)-1H-imidazol-1-yl)-5-(methylsulfonyl)-[1,1′-biphenyl]-4-yl)methanol] | 34 | 41 |
| Cc1nc(-c2cc(-c3cc(F)c(CO)c(S(C)(=O)=O)c3)ccc2-n2cc(C(F)(F)F)nc2C)c(-c2ccc3c(c2)CC(C)(C)O3)o1 [Example 420, (3′-(5-(2,2-dimethyl-2,3-dihydrobenzofuran-5-yl)-2-methyloxazol-4-yl)-3-fluoro-4′-(2-methyl-4-(trifluoromethyl)-1H-imidazol-1-yl)-5-(methylsulfonyl)biphenyl-4-yl)methanol] | 82 | 86 |
| COCc1c(F)cc(-c2ccc(-n3cc(C(C)(F)F)nc3C)c(-n3nncc3-c3ccc(OC(F)(F)F)cc3)c2)cc1S(C)(=O)=O [Example 179, 1-{4-[4-(1,1-difluoroethyl)-2-methyl-1H-imidazol-1-yl]-3′-fluoro-4′-[(methyloxy)methyl]-5′-(methylsulfonyl)biphenyl-3-yl}-5-{4-[(trifluoromethyl)oxy]phenyl}-1H-1,2,3-triazole] | 620 | 105 |
| Cc1nc(C(F)(F)F)cn1-c1ccc(-c2ccc(CO)c(S(C)(=O)=O)c2)cc1-c1nc(CCO)oc1-c1ccc(OC(F)(F)F)cc1 [Example 526] | 1770 | 74 |
